In paper PMC12396409, “Screening and hit evaluation of a microbial metabolite library against the pathogenic Plasmodium falciparum and Toxoplasma gondii parasites” (International Journal for Parasitology: Drugs and Drug …, 2025):
Read-outs that look alike come from different tables or passages of the source.

Columns and labels:
[1] = tested on: P. falciparum 3D7 parasites; experiment: P. falciparum growth inhibition assay, 1-cycle (72 h treatment), SYBR DNA staining (library screen at 2 μg/mL and dose-response); type: cell-based, Plasmodium falciparum; conditions: for activity at 2 µg/mL: Plasmodium falciparum
[2] = tested on: P. falciparum 3D7 parasites; experiment: P. falciparum growth inhibition assay, 2-cycle (120 h treatment), delayed-death screen and dose-response; type: cell-based, Plasmodium falciparum; conditions: for activity at 2 µg/mL: Plasmodium falciparum
[3] = tested on: T. gondii RH strain (RH-Tub-eYFP) tachyzoites; experiment: microbe, parasite or virus in culture; type: cell-based, Toxoplasma gondii; conditions: for percent parasite growth at 2 µg/mL: Toxoplasma gondii
[4] = 3D7, P. falciparum, 72 h, parasite screen 2 μg/mL, % growth, replicate 1, read-out: Pf_72h_%Growth_Rep1
[5] = 3D7, P. falciparum, 72 h, parasite screen 2 μg/mL, % growth, replicate 2, read-out: Pf_72h_%Growth_Rep2
[6] = 3D7, P. falciparum, 120 h, parasite screen 2 μg/mL, % growth, replicate 1, read-out: Pf_120h_%Growth_Rep1
[7] = 3D7, P. falciparum, 120 h, parasite screen 2 μg/mL, % growth, replicate 2, read-out: Pf_120h_%Growth_Rep2
[8] = 72 h, T. gondii, 72 h, parasite screen 2 μg/mL, % growth, replicate 1, read-out: Tg_72h_%Growth_Rep1
[9] = 72 h, T. gondii, 72 h, parasite screen 2 μg/mL, % growth, replicate 2, read-out: Tg_72h_%Growth_Rep2
[10] = library screen at 2 μg/mL, 72 h, % growth, replicate 1
[11] = library screen at 2 μg/mL, 72 h, % growth, replicate 2
[12] = library screen at 2 μg/mL, 120 h, % growth, replicate 1
[13] = library screen at 2 μg/mL, 120 h, % growth, replicate 2

Structure (SMILES): C[C@@H]1C[C@H]2O[C@@H]2/C=C\C=C\C(=O)Cc2c(Cl)c(O)cc(O)c2C(=O)O1 [Radicicol]
- activity at 2 µg/mL [1, 4]: 57.5%
- activity at 2 µg/mL [1, 5]: 42.5%
- activity at 2 µg/mL [2, 6]: 64.2%
- activity at 2 µg/mL [2, 7]: 55%
- percent parasite growth at 2 µg/mL [3, 8]: 52.9%
- percent parasite growth at 2 µg/mL [3, 9]: 57.6%

Structure (SMILES): CN(C)[C@@H]1C(O)=C(C(=O)NCN2CCCC2)C(=O)[C@@]2(O)C(O)=C3C(=O)c4c(O)cccc4[C@@](C)(O)[C@H]3C[C@@H]12 [Rolitetracycline]
- activity at 2 µg/mL [1, 4]: 87.6%
- activity at 2 µg/mL [1, 5]: 70%
- activity at 2 µg/mL [2, 6]: 82.2%
- activity at 2 µg/mL [2, 7]: 135%
- percent parasite growth at 2 µg/mL [3, 8]: 105%
- percent parasite growth at 2 µg/mL [3, 9]: 84.7%

Structure (SMILES): CC(/C=C/C1CC=CC(=O)O1)=C\C(C)C/C=C/C(C)=C/C(C)C(=O)C(C)C(O)C(C)C/C(C)=C/C(=O)O (stereo not drawn) [Anguinomycin A]
- Pf_72h_%Growth_Rep1 [1, 10]: 77.34%
- Pf_72h_%Growth_Rep2 [1, 11]: 87.20%
- Pf_120h_%Growth_Rep1 [2, 12]: 145.35%
- Pf_120h_%Growth_Rep2 [2, 13]: 79.09%
- Tg_72h_%Growth_Rep1 [3, 10]: 87.81%
- Tg_72h_%Growth_Rep2 [3, 11]: 87.77%

Structure (SMILES): CC[C@H](C)[C@H]1O[C@]2(C=C[C@@H]1C)C[C@@H]1C[C@@H](C/C=C(\C)[C@@H](O[C@H]3C[C@H](OC)[C@@H](O[C@H]4C[C@H](OC)[C@H](O)[C@H](C)O4)[C@H](C)O3)[C@@H](C)C=C/C=C3\CO[C@@H]4[C@H](O)C(C)C=C(C(=O)O1)[C@]34O)O2 (stereo partly drawn) [Avermectin B1a, delta2-]
- Pf_72h_%Growth_Rep1 [1, 10]: 4.74%
- Pf_72h_%Growth_Rep2 [1, 11]: 5.45%
- Pf_120h_%Growth_Rep1 [2, 12]: 4.88%
- Pf_120h_%Growth_Rep2 [2, 13]: -9.99%
- Tg_72h_%Growth_Rep1 [3, 10]: 29.57%
- Tg_72h_%Growth_Rep2 [3, 11]: 35.45%

Structure (SMILES): CCCCCC(=O)C(CCCC)c1oc(=O)c(CCCC)c(O)c1CCCC (stereo not drawn) [Elasnin]
- Pf_72h_%Growth_Rep1 [1, 10]: 87.43%
- Pf_72h_%Growth_Rep2 [1, 11]: 85.83%
- Pf_120h_%Growth_Rep1 [2, 12]: 85.68%
- Pf_120h_%Growth_Rep2 [2, 13]: 81.51%
- Tg_72h_%Growth_Rep1 [3, 10]: 103.90%
- Tg_72h_%Growth_Rep2 [3, 11]: 75.71%

Structure (SMILES): C=CC[C@@H]1/C=C(\C)C[C@H](C)C[C@H](OC)[C@H]2O[C@@](O)(C(=O)C(=O)N3CCCC[C@H]3C(=O)O[C@H](/C(C)=C/[C@@H]3CC[C@@H](O)[C@H](OC)C3)[C@H](C)[C@@H](O)CC1=O)[C@H](C)C[C@@H]2OC [Tacrolimus]
- activity at 2 µg/mL ([1]; 3D7, 72 h, P. falciparum, 72 h, parasite screen 2 μg/mL, % growth, replicate 1, read-out: Pf_72h_%Growth_Rep1): 56.9%
- activity at 2 µg/mL ([1]; 3D7, 72 h, P. falciparum, 72 h, parasite screen 2 μg/mL, % growth, replicate 2, read-out: Pf_72h_%Growth_Rep2): 41.7%
- activity at 2 µg/mL ([2]; 3D7, 120 h, P. falciparum, 120 h, parasite screen 2 μg/mL, % growth, replicate 1, read-out: Pf_120h_%Growth_Rep1): 49.7%
- activity at 2 µg/mL ([2]; 3D7, 120 h, P. falciparum, 120 h, parasite screen 2 μg/mL, % growth, replicate 2, read-out: Pf_120h_%Growth_Rep2): 41%
- percent parasite growth at 2 µg/mL [3, 8]: 102%
- percent parasite growth at 2 µg/mL [3, 9]: 79.4%

Structure (SMILES): C=C(C)[C@@H]1CC[C@]2(C(=O)O)CC[C@]3(C)[C@H](CC[C@@H]4[C@@]5(C)CC[C@H](O)C(C)(C)[C@@H]5CC[C@]43C)[C@@H]12 [Betulinic acid]
- activity at 2 µg/mL ([1]; 3D7, library screen at 2 μg/mL, 72 h, % growth, replicate 1, read-out: Pf_72h_%Growth_Rep1): 73.8%
- activity at 2 µg/mL ([1]; 3D7, library screen at 2 μg/mL, 72 h, % growth, replicate 2, read-out: Pf_72h_%Growth_Rep2): 76.9%
- activity at 2 µg/mL ([2]; 3D7, library screen at 2 μg/mL, 120 h, % growth, replicate 1, read-out: Pf_120h_%Growth_Rep1): 70.3%
- activity at 2 µg/mL ([2]; 3D7, library screen at 2 μg/mL, 120 h, % growth, replicate 2, read-out: Pf_120h_%Growth_Rep2): 59.9%
- percent parasite growth at 2 µg/mL ([3]; 72 h, library screen at 2 μg/mL, 72 h, % growth, replicate 1, read-out: Tg_72h_%Growth_Rep1): 107%
- percent parasite growth at 2 µg/mL ([3]; 72 h, library screen at 2 μg/mL, 72 h, % growth, replicate 2, read-out: Tg_72h_%Growth_Rep2): 88%

Structure (SMILES): CC1(C)C=Cc2cc3ccc(=O)oc3cc2O1 [Xanthyletin]
- activity at 2 µg/mL ([1]; 3D7, P. falciparum, 72 h, screen at 2 μg/mL, replicate 1, read-out: Pf_72h_%Growth_Rep1): 88.6%
- activity at 2 µg/mL ([1]; 3D7, P. falciparum, 72 h, screen at 2 μg/mL, replicate 2, read-out: Pf_72h_%Growth_Rep2): 22.4%
- activity at 2 µg/mL ([2]; 3D7, P. falciparum, 120 h, screen at 2 μg/mL, replicate 1, read-out: Pf_120h_%Growth_Rep1): 106%
- activity at 2 µg/mL ([2]; 3D7, P. falciparum, 120 h, screen at 2 μg/mL, replicate 2, read-out: Pf_120h_%Growth_Rep2): 81.1%
- percent parasite growth at 2 µg/mL ([3]; 72 h, T. gondii, 72 h, screen at 2 μg/mL, replicate 1, read-out: Tg_72h_%Growth_Rep1): 146%
- percent parasite growth at 2 µg/mL ([3]; 72 h, T. gondii, 72 h, screen at 2 μg/mL, replicate 2, read-out: Tg_72h_%Growth_Rep2): 65.7%

Structure (SMILES): COc1cc2c(c3oc(=O)c4c(c13)CCC4=O)[C@@H]1CCO[C@@H]1O2 [Aflatoxin B2]
- Pf_72h_%Growth_Rep1 [1]: 82.21%
- Pf_72h_%Growth_Rep2 [1]: 80.10%
- Pf_120h_%Growth_Rep1 [2]: 93.01%
- Pf_120h_%Growth_Rep2 [2]: 84.17%
- Tg_72h_%Growth_Rep1 [3]: 112.94%
- Tg_72h_%Growth_Rep2 [3]: 92.34%
